Test [1] deals with endothelial cells. Put plainly: Proliferation of endothelial cells (general statement). Type of test: cell-based.
In test [2] the test system is vascular smooth muscle cells. Briefly: Proliferation/growth of vascular smooth muscle cells (general statement). Type of test: cell-based.
Test [3] has as its system rat vascular smooth muscle cells. Briefly: cells. Type of test: cell-based. The method, then:
DNA synthesis assessed by the uptake of [3H]thymidine: Cells are grown in either 48 or 96 wells plates (Costar, Cambridge, Mass.) at 104 and 0.8 10^3 cells per well, respectively, and grown in Dubelcco's modified Eagle's medium (DME, Gibco, Grand Island, N.Y.) supplemented with 10% heat-inactivated calf serum; they are kept at 37° C. in 5% CO2. When they reach confluence, usually between 3 and 4 days, the medium is replaced with DME 0.5% serum to make them quiescent, and mitogenesis assays are performed 24 hours later.
Quiescent cells are exposed to a mitogenic stimulus, such as 10% serum, PDGF (Sigma Co. St. Louis, Mo.), bFGF (Upstate Biotechnologies, Lake Placid, N.Y.), or other appropriate mitogen according to the cell line, and 3 hours later 1 μCi/ml of [3H]thymidine (Dupont, Billerica, Mass. ) is added to the wells, and the cells maintained at 37° C./5% CO2 for additional 21 hours. Then the cells are washed 3 times with DME medium and the acid-precipitable radioactivity is extracted with cold 10% TCA (Sigma, Co). After neutralization with 0.3 N NaOH (Sigma Co.), aliquots are counted in a Packard Tri-Carb Scintillation counter (Packard Instrument, Downer's Grove, Ill.).
Rat vascular smooth muscle cells (murine cell line): Quiescent cells were stimulated with purified growth factors (PDGF and bFGF, […]) and synthesis of DNA was assessed by the incorporation of [3H]thymidine measured 24 hours later.
Cells were stimulated using […] bFGF. […] (FIG. 2)
Other antimycotics were tested for their inhibition of bFGF-stimulated DNA synthesis in rat vascular smooth muscle cells.

The test system of test [4] is bovine endothelial (BAEC). Put plainly: Cell growth (surface of culture flask covered by cell monolayer), bovine endothelial cells. Type of test: cell-based. The following applies: 10 μM, 48 hs, without CLT 90±2%. How it is done: (§1) Measurement of cell density in culture plates: Cells of a specific test cell line are seeded at precisely the same low density in culture plates and incubated for approximately 12 hours in DME 10% serum, or other culture medium depending on the cell line tested. […] Alternatively, the cells can be detached from the plate by incubation with trypsin (Sigma, Co.) […] in ethylene diaminotetraacetic acid (ECTA; Sigma, Co); then the cells are counted in an hemocytometer chamber (Fisher, Pittsburgh, Pa.).
(§2) Bovine endothelial (BAEC) and human umbilical vein (HUVEC): Cells were seeded at a low density (2.5×10^5) in cell culture flasks (75 ml flasks) containing DME 10% calf serum (BAEC) or fetal calf serum (HUVEC); after 12 hs, when the cells were attached to the surface of the flasks, CLT (10 μM) or carrier (ethanol) were added to triplicate flasks. After 48 hs cell growth was assessed by optic miscroscopy calculating the surface of the culture flask covered by the cell monolayer.

The subject of test [5] is human umbilical vein (HUVEC). Briefly: Cell growth (surface of culture flask covered by cell monolayer), human umbilical vein cells. Type of test: cell-based. The following applies: 10 μM, 48 hs, without CLT 90±2%. The method, then:
as §1, §2

The target in test [6] is T1, Ca^++ activated K channel of human erythrocytes (Homo sapiens, UniProt O15554).
T1 construct: Preparation of Human Red Blood Cells: Blood is collected in heparinized tubes; endogenous in cells; host or cells: washed human erythrocytes (red blood cells from heparinized blood)
Briefly: Inhibition of Ca++ activated K channel of human erythrocytes, 86Rb influx. Type of test: biochemical. Conditions: for Order of inhibitory potency, Ca++ activated 86Rb influx / Inhibition of Ca++ activated 86Rb influx by other antimycotics: human erythrocytes; for Inhibition of Ca++ activated 86Rb influx by other antimycotics: FIG. 4. How it is done:
(§3) Preparation of Human Red Blood Cells: Blood is collected in heparinized tubes and centrifuged in a Sorvall centrifuge (RB 5B, Du Pont Instruments,Newtown, Conn.) at 5° C. for 10 minutes at 3000 g. Plasma and buffy coat are carefully removed and the cells washed four times with a washing solution containing 150 mM choline chloride (Sigma Co), 1 mM MgCl2 (Sigma Co),10mM Tris-MOPS (Sigma, Calif.), pH 7.4 at 4° C.(CWS). An aliquot of cells is then suspended in an approximately equal volume of CWS, and from this original cell suspension hematocrit (Hct) and hemoglobin (optical density at 540 nm) are determined.
Methods to Test Inhibitors of the Ca^++ Activated K channel: To test inhibitors of the Ca^++ activated K channel, the channel is activated using the calcium ionophore A23187 (Calbiochem).
By radioisotopic measurement of ^86 Rb influx. The incubation medium is the same but contains 2 mM KCl and 1 μCi/ml of the radioactive tracer ^86 Rb. After spinning the samples through the phthalate layer, the tubes are rapidly frozen (-80° C.) by immersion in methanol-dry ice, the tips of the tubes containing the packed red cells cut, and counted in a Packard Gamma Counter.
(§4) The inhibitory effect of (CLT) on the Ca^++ activated K channel of human erythrocytes was assessed in the presence of 60 μmol A23187/L cell and 100 μMCaCl2.
Other antimycotics were tested for their inhibition of the Ca++ activated 86Rb influx human erythrocytes.

Test [7] deals with T1, Ca^++ activated K channel of human erythrocytes. Briefly: Inhibition of Ca++ activated K channel of human erythrocytes, K efflux. Type of test: biochemical. The following applies: 60 μmol A23187/L cell, 100 μM CaCl2.
From the text: Ca^++ -sensitive K+ channels have wide distribution among cells, including the human red cell where they were originally discovered and which is the most commonly utilized assay system for activators and inhibitors of the channel for the following reasons: they are readily available, can be easily manipulated in the laboratory, and transport assays can be accurately standardized by reading the hemoglobin concentration of a red cell suspension.
as §3, with “determined. […]” for “determined.”
as §4

Test [8] concerns Swiss 3T3 cells. Briefly: Proliferative response to mitogens released from MAC-treated endothelial cells, 3T3 cells. Type of test: cell-based. The following applies: 10 μM CLT; quiescent 3T3 cells; conditioned media from MAC treated EC; FIG. 5. The method, then: (§5) CLT inhibits the mitogenic activity released from endothelial cells by activated component. When endothelial cells (EC) in culture (both BAEC and HUVEC) are treated with terminal complement components to form the MAC (membrane attack complex of complement), they release into the culture medium a potent mitogenic activity that stimulates the proliferation of quiescent cells used as indicators of the mitogens. Both, quiescent Swiss 3T3 and vascular smooth muscle cells are stimulated by the mitogens released form EC in response to the MAC (FIG. 5; Halperin et al. unpublished observation). Moreover, immunoprecipitation with specific antibodies has documented that both PDGF and bFGF released from the EC contribute in approximately equal proportion to the mitogenic activity induced by the MAC (data not shown).
(§6) To determine whether CLT inhibited the cell proliferative activity released by the MAC from EC, quiescent 3T3 and vascular smooth muscle cells were stimulated in the presence and absence of 10 μM CLT with conditioned media obtained from MAC treated EC.

The subject of test [9] is vascular smooth muscle cells. Briefly: Proliferative response to mitogens released from MAC-treated endothelial cells, vascular smooth muscle cells. The following applies: 10 μM CLT; quiescent vascular smooth muscle cells; conditioned media from MAC treated EC; FIG. 5. Type of test: cell-based. The method, then: as §5, §6
Test [10] concerns epidermal cells. Put plainly: Growth of epidermal cells (general statement). Type of test: cell-based.
For test [11] the following is noted: hormonal adjuvant for prostate cancer; cited from earlier work.
Test [12] relates to 17-20 desmolase. The following applies: cited from earlier work.
In test [13] the test system is 17-hydroxylase. The following applies: cited from earlier work.
The test system of test [14] is 21- and/or 11-hydroxylase. The following applies: cited from earlier work.

“Also recorded” adds a separate entry of the source. Read-outs that look alike come from different tables or passages of the source.

Turning to `N=C(N)NC(=O)c1nc(Cl)c(N)nc1N` [amiloride], the “Inhibition of proliferation of endothelial cells” value (“Inhibition … of endothelial cells” for short) in [1] is “do not inhibit cell proliferation”. The “Inhibition of proliferation/growth of vascular smooth muscle cells” value in [2] is “do not inhibit cell proliferation”.

On to `Clc1ccccc1C(c1ccccc1)(c1ccccc1)n1ccnc1` [clotrimazole], for which, in test [3], the “Dose response of inhibition of DNA synthesis” value is recorded as “dose dependent”, the “Inhibition of DNA synthesis” value is “complete inhibition”, the “Inhibition of PDGF stimulated DNA synthesis” value is reported as “completely inhibited” and the “Inhibition of bFGF stimulated DNA synthesis” value was “completely inhibited”. In addition, in [3], the “Inhibition of bFGF-stimulated DNA synthesis” value is “inhibited DNA synthesis”; the “Order of inhibitory potency, bFGF-stimulated DNA synthesis” value is given as “CLT more potent than ECZ”; the “Reversibility of the inhibition of DNA synthesis” value was “reversed by removing CLT”. The inhibition at 1 µM in test [3] (Rattus norvegicus, read-out: Inhibition of DNA synthesis) stood at 45%. Also, the “Flask surface covered by cells in the presence of CLT” value in test [4] is “less than 10%”. Moreover, in test [5], the “Flask surface covered by cells in the presence of CLT” value is reported as “less than 10%”. Also, the “Inhibition of Ca^++ activated 86Rb influx” value in test [6] (60 μmol A23187/L cell, 100 μM CaCl2) is “markedly inhibited”. In addition, in [6], the “Order of inhibitory potency, Ca++ activated 86Rb influx” value was “clotrimazole more than miconazole”. For the same compound, in [7], the “Inhibition of Ca^++ activated K efflux” value is given as “markedly inhibited”. Also, the “Inhibition of proliferative response to mitogens released from EC” value in test [8] is listed as “completely inhibited”. Further, the “Inhibition of proliferative response to mitogens released from EC” value in [9] was “completely inhibited”.

`Clc1ccc(COC(Cn2ccnc2)c2ccc(Cl)cc2Cl)cc1` (stereo not drawn) [econazole]: the “Order of inhibitory potency, bFGF-stimulated DNA synthesis” value in [3] (10 μM, FIG. 3) is listed as “ECZ more potent than MCZ”. Further, in [3] (antimycotics at 10 μM, FIG. 3), the “Inhibition of bFGF-stimulated DNA synthesis” value is “inhibited DNA synthesis”. Further, the “Order of inhibitory potency, Ca++ activated 86Rb influx” value in test [6] is “both of these were more than econazole”.

For `OC(Cn1cncn1)(Cn1cncn1)c1ccc(F)cc1F` [fluconazole], in test [6], the “Inhibition of Ca++ activated 86Rb influx by other antimycotics” value (“Inhibition of Ca++ activated 86Rb influx” below) is recorded as “no inhibition”.

For `CC(=O)N1CCN(c2ccc(OCC3COC(Cn4ccnc4)(c4ccc(Cl)cc4Cl)O3)cc2)CC1` (stereo not drawn) [ketoconazole], the “Inhibition … of endothelial cells” value in test [1] is reported as “not useful for inhibiting”. The “Inhibition of proliferation/growth of vascular smooth muscle cells” value in test [2] is on record as “not useful for inhibiting; also recorded: ineffective”. The “Inhibition of growth of epidermal cells” value in [10] was “ineffective”. For the same compound, the Plasma testosterone reduction entry in [11] is on record as “reduces plasma testosterone to castration levels”. Moreover, in test [12], the “Inhibition of 17-20 desmolase” value was “inhibition”. Moreover, the “Blockade of 17-hydroxylase” value in test [13] is “partial blockade”. In addition, the “Inhibition of 21- and/or 11-hydroxylase” value in [14] is recorded as “marked inhibition”.

Regarding `Cc1ncc([N+](=O)[O-])n1CCO` [metronidazole], the “Inhibition of Ca++ activated 86Rb influx” value in test [6] was “only marginal”.

On to `Clc1ccc(COC(Cn2ccnc2)c2ccc(Cl)cc2Cl)c(Cl)c1` (stereo not drawn) [miconazole], for which the “Order of inhibitory potency, bFGF-stimulated DNA synthesis” value in [3] (10 μM, FIG. 3) is reported as “ECZ more potent than MCZ”. The “Inhibition of bFGF-stimulated DNA synthesis” value in test [3] (antimycotics at 10 μM, FIG. 3) is on record as “inhibited DNA synthesis”. In test [6], the “Order of inhibitory potency, Ca++ activated 86Rb influx” value is given as “both of these were more than econazole”.

For `Cc1ncc([N+](=O)[O-])n1CC(O)CCl` (stereo not drawn) [ornidazole], the “Inhibition of Ca++ activated 86Rb influx” value in test [6] was “no inhibition”.

As to `C[C@@H]1O[C@@H](O[C@H]2C[C@@H](O)[C@]3(CO)[C@H]4[C@H](O)C[C@]5(C)[C@@H](C6=CC(=O)OC6)CC[C@]5(O)[C@@H]4CC[C@]3(O)C2)[C@H](O)[C@H](O)[C@H]1O` [ouabain], the “Inhibition … of endothelial cells” value in [1] is reported as “do not inhibit cell proliferation”. The “Inhibition of proliferation/growth of vascular smooth muscle cells” value in test [2] was “do not inhibit cell proliferation”.

As for `CCS(=O)(=O)CCn1c([N+](=O)[O-])cnc1C` [tinidazole], in test [6], the “Inhibition of Ca++ activated 86Rb influx” value is given as “no inhibition”.

Take charybdotoxin: the “Inhibition of DNA synthesis by other inhibitors of the Ca^++ activated K channel” value (“Inhibition … of the Ca^++ activated K channel” for short) in test [3] (FIG. 3) is given as “failed to inhibit DNA synthesis”. Further, the “Inhibition … of endothelial cells” value in test [1] is recorded as “do not inhibit proliferation”. In addition, the “Inhibition of proliferation/growth of vascular smooth muscle cells” value in test [2] is reported as “do not inhibit proliferation”.

Turning to “iberiotoxin (QFTDVDCSVSKECWSVCKDLFGVDRGKCMGKKCRCYQ; UniProt P24663 1-37, looked up)”, the “Inhibition … of the Ca^++ activated K channel” value in test [3] (FIG. 3) is listed as “failed to inhibit DNA synthesis”. In addition, the “Inhibition … of endothelial cells” value in test [1] is listed as “do not inhibit proliferation”. Further, the “Inhibition of proliferation/growth of vascular smooth muscle cells” value in test [2] is on record as “do not inhibit proliferation”.

Regarding “kaliotoxin: specific inhibitor of the Ca^++ activated potassium channel”, the “Inhibition … of the Ca^++ activated K channel” value in [3] (FIG. 3) is reported as “failed to inhibit DNA synthesis”. For the same compound, the “Inhibition … of endothelial cells” value in test [1] is “do not inhibit proliferation”. In test [2], the “Inhibition of proliferation/growth of vascular smooth muscle cells” value is reported as “do not inhibit proliferation”.

Values taken from patent publication US5591763A, “treatments for diseases characterized by neovascularization” (President and Fellows of Harvard College, priority 1995, dated 1997).
